Results as given in US9663530B2, “5-oxa-2-azabicyclo[2.2.2]OCTAN-4-yl and 5-oxa-2-azabicyclo[2.2.1]heptan-4-yl derivatives” (Hoffmann-La Roche Inc., priority 2014, dated 2017).

Columns and labels:
mouse TAAR1 = mouse TAAR1 (Mus musculus (Mouse), UniProt Q923Y8); assay: Radioligand binding assay on mouse TAAR1; conditions: for Ki: mouse TAAR1 (first value of the cell), membranes of HEK-293 cells stably expressing mouse TAAR1, read-out: Ki (μM) mouse/rat
rat TAAR1 = rat TAAR1 (Rattus norvegicus (Rat), UniProt Q923Y9); assay: Radioligand binding assay on rat TAAR1; conditions: for Ki: rat TAAR1 (second value of the cell), membranes of HEK-293 cells stably expressing rat TAAR1, read-out: Ki (μM) mouse/rat
Sequence of rat TAAR1 (Q923Y9 whole entry): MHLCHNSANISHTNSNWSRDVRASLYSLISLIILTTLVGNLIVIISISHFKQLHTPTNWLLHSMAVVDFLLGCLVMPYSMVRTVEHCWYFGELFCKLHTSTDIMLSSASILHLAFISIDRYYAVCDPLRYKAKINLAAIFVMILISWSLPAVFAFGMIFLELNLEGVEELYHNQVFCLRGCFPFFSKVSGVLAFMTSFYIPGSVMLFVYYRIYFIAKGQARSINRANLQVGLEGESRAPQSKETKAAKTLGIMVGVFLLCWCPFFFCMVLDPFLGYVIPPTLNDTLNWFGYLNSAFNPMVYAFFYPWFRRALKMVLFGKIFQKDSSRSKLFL
Summary of the method: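 Membranes from HEK293 cells stably expressing rat TAAR1 were incubated 1 h at 4 °C, in duplicate, with the tritiated oxazol-2-ylamine radioligand added at 3.3×Kd (Kd set per membrane batch by saturation). Buffer was 20 mM HEPES-NaOH pH 7.4, 10 mM MgCl2, 2 mM CaCl2; filtration and scintillation counting followed. […]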

Sequence of mouse TAAR1 (Q923Y8 whole entry): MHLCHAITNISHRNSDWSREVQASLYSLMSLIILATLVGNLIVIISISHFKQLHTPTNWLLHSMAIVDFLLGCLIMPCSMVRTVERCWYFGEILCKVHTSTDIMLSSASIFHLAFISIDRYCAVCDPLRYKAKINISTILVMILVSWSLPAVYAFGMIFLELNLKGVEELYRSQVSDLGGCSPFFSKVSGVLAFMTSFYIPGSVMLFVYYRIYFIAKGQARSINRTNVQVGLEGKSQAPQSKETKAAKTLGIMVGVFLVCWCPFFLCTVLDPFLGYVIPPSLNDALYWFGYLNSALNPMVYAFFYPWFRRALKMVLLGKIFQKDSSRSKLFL

| Compound | Ki (mouse TAAR1) [µM] | Ki (rat TAAR1) [µM] | Kd (mouse TAAR1; mouse TAAR1 membranes, saturation curve, read-out: dissociation constant (Kd) of the TAAR1 radioligand) [nM] | Kd (rat TAAR1; rat TAAR1 membranes, saturation curve, read-out: dissociation constant (Kd) of the TAAR1 radioligand) [nM] |
| --- | --- | --- | --- | --- |
| O=C(Nc1ccc(C[C@@]23CN[C@@H](CO2)C3)cc1)c1cnc(C2CC2)nc1 [Example 51, 2-Cyclopropyl-N-[4-[[(1R,4R)-5-oxa-2-azabicyclo[2.2.1]heptan-4-yl]methyl]phenyl]pyrimidine-5-carboxamide] | 0.0774 | 0.324 |  |  |
| CC(C)c1cc(C(=O)Nc2ccc(C[C@@]34CN[C@@H](CO3)C4)cc2)[nH]n1 [Example 52, 3-Isopropyl-N-[4-[[(1R,4R)-5-oxa-2-azabicyclo[2.2.1]heptan-4-yl]methyl]phenyl]-1H-pyrazole-5-carboxamide] | 0.295 | 1.16 |  |  |
| CCOc1ccc(C(=O)Nc2ccc(C34CCC(CO3)NC4)cc2)cc1 (stereo not shown) [Example 53, 4-Ethoxy-N-[4-(5-oxa-2-azabicyclo[2.2.2]octan-4-yl)phenyl]benzamide] | 0.0156 | 1.98 |  |  |
| O=C(Nc1ccc([C@@]23CN[C@@H](CO2)C3)cc1)c1ccc(Cl)cc1 [Example 54, 4-Chloro-N-[4-[(1R,4S)-5-oxa-2-azabicyclo[2.2.1]heptan-4-yl]phenyl]benzamide] | 0.0054 | 0.97 |  |  |
| O=C(Nc1ccc([C@@]23CN[C@@H](CO2)C3)cc1)c1cccc(Cl)c1 [Example 55, 3-Chloro-N-[4-[(1R,4S)-5-oxa-2-azabicyclo[2.2.1]heptan-4-yl]phenyl]benzamide] | 0.0036 | 0.964 |  |  |
| FC(F)(F)c1nccc(Nc2ccc([C@@]34CN[C@@H](CO3)C4)cc2)n1 [Example 56, N-[4-[(1R,4S)-5-Oxa-2-azabicyclo[2.2.1]heptan-4-yl]phenyl]-2-(trifluoromethyl)pyrimidin-4-amine] | 0.0393 | 2.41 |  |  |
| O=C(Nc1ccc([C@@]23CN[C@@H](CO2)C3)cc1)c1ccnc(C(F)(F)F)c1 [Example 57] | 0.0593 | 1.91 |  |  |
| O=C(Nc1ccc([C@]23CN[C@H](CO2)C3)cc1)c1ccc(Cl)cc1 [Example 58, 4-Chloro-N-[4-[(1S,4R)-5-oxa-2-azabicyclo[2.2.1]heptan-4-yl]phenyl]benzamide] | 0.016 | 0.071 |  |  |
| O=C(Nc1ccc([C@]23CN[C@H](CO2)C3)cc1)c1cccc(Cl)c1 [Example 59, 3-Chloro-N-[4-[(1S,4R)-5-oxa-2-azabicyclo[2.2.1]heptan-4-yl]phenyl]benzamide] | 0.0054 | 0.0774 |  |  |
| O=C(Nc1ccc([C@]23CN[C@H](CO2)C3)cc1)c1ccnc(C(F)(F)F)c1 [Example 60, N-[4-[(1S,4R)-5-Oxa-2-azabicyclo[2.2.1]heptan-4-yl]phenyl]-2-(trifluoromethyl)pyridine-4-carboxamide] | 0.0512 | 0.273 |  |  |
| FC(F)(F)c1ccc(Nc2ccc([C@]34CN[C@H](CO3)C4)cc2)nc1 [Example 61, N-[4-[(1 S,4R)-5-Oxa-2-azabicyclo[2.2.1]heptan-4-yl]phenyl]-5-(trifluoromethyl)pyridin-2-amine] | 0.0146 | 0.0293 |  |  |
| FC(F)(F)c1nccc(Nc2ccc([C@]34CN[C@H](CO3)C4)cc2)n1 [Example 62, N-[4-[(1S,4R)-5-Oxa-2-azabicyclo[2.2.1]heptan-4-yl]phenyl]-2-(trifluoromethyl)pyrimidin-4-amine] | 0.144 | 0.233 |  |  |
| FC(F)(F)c1ccc(Nc2ccc(C[C@@]34CN[C@@H](CO3)C4)cc2)nc1 [Example 63, N-[4-[[(1R,4R)-5-Oxa-2-azabicyclo[2.2.1]heptan-4-yl]methyl]phenyl]-5-(trifluoromethyl)pyridin-2-amine] | 0.0107 | 0.141 |  |  |
| CCN(C[C@H]1COC(N)=N1)c1ccccc1 [^3[H]-(S)-4-[(ethyl-phenyl-amino)-methyl]-4,5-dihydro-oxazol-2-ylamine, reference compound] |  |  | ~0.7 | ~2.3 |
